Measured values published in patent US9925193B2, “Thioether derivatives as protein kinase inhibitors” (KTB TUMORFORSCHUNGSGESELLSCHAFT MBH, priority 2012, dated 2018).

Columns and labels:
AXL = target: T1, AXL (Homo sapiens, UniProt P30530); assay: 33PanQinase Activity Assay, AXL; format: biochemical; conditions: recombinant human protein kinase, 1 μM [γ-33P]-ATP, 30° C. 80 minutes
T1 construct: made in house; host or cells: Sf9 insect cells (baculovirus)
T1 sequence (P30530 26-894): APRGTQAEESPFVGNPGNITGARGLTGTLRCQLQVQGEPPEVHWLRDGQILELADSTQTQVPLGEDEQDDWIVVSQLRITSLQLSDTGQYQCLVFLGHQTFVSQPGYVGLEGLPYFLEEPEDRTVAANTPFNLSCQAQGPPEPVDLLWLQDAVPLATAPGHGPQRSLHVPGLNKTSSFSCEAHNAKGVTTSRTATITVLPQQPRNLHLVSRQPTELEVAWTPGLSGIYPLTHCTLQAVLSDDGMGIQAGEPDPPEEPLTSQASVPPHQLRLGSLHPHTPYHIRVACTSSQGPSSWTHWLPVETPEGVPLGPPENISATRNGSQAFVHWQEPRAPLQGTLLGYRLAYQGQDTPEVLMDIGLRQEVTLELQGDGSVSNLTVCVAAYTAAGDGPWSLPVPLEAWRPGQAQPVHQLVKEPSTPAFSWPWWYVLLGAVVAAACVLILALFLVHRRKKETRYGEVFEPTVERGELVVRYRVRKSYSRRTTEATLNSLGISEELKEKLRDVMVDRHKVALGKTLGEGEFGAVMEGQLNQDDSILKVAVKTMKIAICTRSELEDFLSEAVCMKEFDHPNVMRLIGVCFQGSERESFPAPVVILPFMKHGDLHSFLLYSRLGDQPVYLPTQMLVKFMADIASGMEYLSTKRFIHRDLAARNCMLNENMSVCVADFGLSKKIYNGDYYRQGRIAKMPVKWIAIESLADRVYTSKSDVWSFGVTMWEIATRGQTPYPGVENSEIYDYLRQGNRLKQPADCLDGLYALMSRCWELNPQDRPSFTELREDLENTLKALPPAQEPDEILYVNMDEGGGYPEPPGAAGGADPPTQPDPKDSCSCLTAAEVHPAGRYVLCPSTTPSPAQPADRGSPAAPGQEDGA
Method: (§1) The effect of the thioether derivatives 8a-v and 9a-i was tested on recombinant, human protein kinases. All protein kinases were expressed in Sf9 insect cells as human recombinant GST-fusion proteins or as His-tagged proteins by means of the baculovirus expression system. Protein kinases were purified by affinity chromatography using either GSH-agarose or Ni-NTH-agarose. The purity and identity of each was checked by SDS-PAGE/silver staining and by western blot analysis with specific antibodies.
(§2) A proprietary protein kinase assay (^33PanQinase® Activity Assay) was used for measuring the kinase activity. All kinase assays were performed in 96-well FlashPlates™ in a 50 μl reaction volume. The assay for all enzymes contained 60 mM HEPES-NaOH, pH 7.5, 3 mM MgCl2, 3 mM MnCl2, 3 μM Na-orthovanadate, 1.2 mM DTT, 50 μg/ml PEG20000 and 1 μM [γ-^33P]-ATP (approx. 5×10^5 cpm per well).
(§3) The reaction cocktails were incubated at 30° C. for 80 minutes. The reaction was stopped with 50 μl of 2% (v/v) H3PO4, plates were aspirated and washed two times with 200 μl of 0.9% (w/v) NaCl. Incorporation of ^33Pi was determined with a microplate scintillation counter. All assays were performed with a BeckmanCoulter/Sagian robotic system.

ALK = target: T2, ALK (Homo sapiens, UniProt Q9UM73); assay: 33PanQinase Activity Assay, ALK; format: biochemical; conditions: recombinant human protein kinase, 1 μM [γ-33P]-ATP, 30° C. 80 minutes
T2 construct: made in house; host or cells: Sf9 insect cells (baculovirus)
T2 sequence (Q9UM73 19-1620): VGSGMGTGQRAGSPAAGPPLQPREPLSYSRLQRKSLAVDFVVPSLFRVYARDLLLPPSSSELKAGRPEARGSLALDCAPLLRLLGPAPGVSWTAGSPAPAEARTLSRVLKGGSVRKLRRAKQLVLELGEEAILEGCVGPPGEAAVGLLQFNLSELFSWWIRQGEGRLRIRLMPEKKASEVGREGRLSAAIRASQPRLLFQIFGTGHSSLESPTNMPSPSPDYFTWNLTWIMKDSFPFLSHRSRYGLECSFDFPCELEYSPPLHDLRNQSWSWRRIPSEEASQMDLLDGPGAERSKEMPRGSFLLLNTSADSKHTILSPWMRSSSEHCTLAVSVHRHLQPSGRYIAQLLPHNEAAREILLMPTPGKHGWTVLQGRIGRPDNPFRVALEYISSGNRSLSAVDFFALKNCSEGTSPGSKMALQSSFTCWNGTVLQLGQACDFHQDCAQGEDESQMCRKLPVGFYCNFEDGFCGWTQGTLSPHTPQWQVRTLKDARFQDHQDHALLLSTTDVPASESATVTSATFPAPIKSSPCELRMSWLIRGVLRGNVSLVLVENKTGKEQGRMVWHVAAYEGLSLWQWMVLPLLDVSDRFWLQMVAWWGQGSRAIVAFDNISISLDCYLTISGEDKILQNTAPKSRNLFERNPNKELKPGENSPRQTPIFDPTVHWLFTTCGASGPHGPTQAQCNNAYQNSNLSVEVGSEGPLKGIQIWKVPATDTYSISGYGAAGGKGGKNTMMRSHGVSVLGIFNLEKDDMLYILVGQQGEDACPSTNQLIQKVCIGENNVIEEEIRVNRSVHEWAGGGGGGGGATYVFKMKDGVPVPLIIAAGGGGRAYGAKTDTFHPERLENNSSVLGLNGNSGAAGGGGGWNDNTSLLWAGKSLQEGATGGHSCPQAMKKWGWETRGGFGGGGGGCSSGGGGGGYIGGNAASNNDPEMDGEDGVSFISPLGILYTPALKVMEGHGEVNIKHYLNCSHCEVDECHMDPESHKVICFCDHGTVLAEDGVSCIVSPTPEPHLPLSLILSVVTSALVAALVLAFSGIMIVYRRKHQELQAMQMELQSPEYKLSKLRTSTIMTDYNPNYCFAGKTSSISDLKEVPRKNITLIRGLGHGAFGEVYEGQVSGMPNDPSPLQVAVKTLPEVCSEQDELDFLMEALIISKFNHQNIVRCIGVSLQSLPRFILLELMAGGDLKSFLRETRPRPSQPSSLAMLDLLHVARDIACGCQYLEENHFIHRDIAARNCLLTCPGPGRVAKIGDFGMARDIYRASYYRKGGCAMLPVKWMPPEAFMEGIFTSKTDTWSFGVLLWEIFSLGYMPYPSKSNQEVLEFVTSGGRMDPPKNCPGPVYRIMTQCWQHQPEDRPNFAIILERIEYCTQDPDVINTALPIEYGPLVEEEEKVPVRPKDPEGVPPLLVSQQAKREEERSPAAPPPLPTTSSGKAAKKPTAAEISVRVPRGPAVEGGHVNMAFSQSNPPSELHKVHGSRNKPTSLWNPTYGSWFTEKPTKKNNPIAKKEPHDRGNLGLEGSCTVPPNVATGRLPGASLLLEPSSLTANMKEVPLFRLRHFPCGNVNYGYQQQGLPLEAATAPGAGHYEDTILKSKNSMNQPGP
Method: as §1, §2, §3

KIT wt = target: T3, KIT wt (Homo sapiens, UniProt P10721); assay: 33PanQinase Activity Assay, KIT wt; format: biochemical; conditions: recombinant human protein kinase, 1 μM [γ-33P]-ATP, 30° C. 80 minutes
T3 construct: made in house; host or cells: Sf9 insect cells (baculovirus)
T3 sequence (P10721 26-976): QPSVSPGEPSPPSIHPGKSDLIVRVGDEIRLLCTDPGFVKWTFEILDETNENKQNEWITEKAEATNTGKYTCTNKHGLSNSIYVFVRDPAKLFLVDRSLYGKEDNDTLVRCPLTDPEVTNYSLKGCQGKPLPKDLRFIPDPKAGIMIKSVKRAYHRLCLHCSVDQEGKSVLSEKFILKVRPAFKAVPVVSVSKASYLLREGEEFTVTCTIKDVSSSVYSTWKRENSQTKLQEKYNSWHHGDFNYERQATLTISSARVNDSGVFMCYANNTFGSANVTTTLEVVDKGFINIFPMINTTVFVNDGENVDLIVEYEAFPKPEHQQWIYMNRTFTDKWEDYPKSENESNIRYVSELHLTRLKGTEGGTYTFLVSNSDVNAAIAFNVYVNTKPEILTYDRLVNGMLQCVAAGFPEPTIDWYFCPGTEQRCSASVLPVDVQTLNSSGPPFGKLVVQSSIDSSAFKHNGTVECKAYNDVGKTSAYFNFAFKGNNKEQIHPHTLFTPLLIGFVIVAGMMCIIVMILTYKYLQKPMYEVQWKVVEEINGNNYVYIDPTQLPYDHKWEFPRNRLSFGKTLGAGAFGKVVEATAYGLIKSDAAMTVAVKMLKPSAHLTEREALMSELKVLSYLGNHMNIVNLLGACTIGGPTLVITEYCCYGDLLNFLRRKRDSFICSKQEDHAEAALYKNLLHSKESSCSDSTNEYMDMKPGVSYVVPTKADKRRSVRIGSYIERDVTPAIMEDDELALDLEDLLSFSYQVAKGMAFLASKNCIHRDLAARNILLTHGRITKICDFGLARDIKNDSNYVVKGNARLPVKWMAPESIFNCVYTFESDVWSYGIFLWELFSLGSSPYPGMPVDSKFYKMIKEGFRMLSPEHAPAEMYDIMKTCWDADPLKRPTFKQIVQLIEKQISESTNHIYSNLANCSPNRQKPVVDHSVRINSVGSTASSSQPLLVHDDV
Method: as §1, §2, §3

FAK = target: T4, FAK (Homo sapiens, UniProt Q05397); assay: 33PanQinase Activity Assay, FAK; format: biochemical; conditions: recombinant human protein kinase, 1 μM [γ-33P]-ATP, 30° C. 80 minutes
T4 construct: made in house; host or cells: Sf9 insect cells (baculovirus)
T4 sequence (Q05397 whole entry): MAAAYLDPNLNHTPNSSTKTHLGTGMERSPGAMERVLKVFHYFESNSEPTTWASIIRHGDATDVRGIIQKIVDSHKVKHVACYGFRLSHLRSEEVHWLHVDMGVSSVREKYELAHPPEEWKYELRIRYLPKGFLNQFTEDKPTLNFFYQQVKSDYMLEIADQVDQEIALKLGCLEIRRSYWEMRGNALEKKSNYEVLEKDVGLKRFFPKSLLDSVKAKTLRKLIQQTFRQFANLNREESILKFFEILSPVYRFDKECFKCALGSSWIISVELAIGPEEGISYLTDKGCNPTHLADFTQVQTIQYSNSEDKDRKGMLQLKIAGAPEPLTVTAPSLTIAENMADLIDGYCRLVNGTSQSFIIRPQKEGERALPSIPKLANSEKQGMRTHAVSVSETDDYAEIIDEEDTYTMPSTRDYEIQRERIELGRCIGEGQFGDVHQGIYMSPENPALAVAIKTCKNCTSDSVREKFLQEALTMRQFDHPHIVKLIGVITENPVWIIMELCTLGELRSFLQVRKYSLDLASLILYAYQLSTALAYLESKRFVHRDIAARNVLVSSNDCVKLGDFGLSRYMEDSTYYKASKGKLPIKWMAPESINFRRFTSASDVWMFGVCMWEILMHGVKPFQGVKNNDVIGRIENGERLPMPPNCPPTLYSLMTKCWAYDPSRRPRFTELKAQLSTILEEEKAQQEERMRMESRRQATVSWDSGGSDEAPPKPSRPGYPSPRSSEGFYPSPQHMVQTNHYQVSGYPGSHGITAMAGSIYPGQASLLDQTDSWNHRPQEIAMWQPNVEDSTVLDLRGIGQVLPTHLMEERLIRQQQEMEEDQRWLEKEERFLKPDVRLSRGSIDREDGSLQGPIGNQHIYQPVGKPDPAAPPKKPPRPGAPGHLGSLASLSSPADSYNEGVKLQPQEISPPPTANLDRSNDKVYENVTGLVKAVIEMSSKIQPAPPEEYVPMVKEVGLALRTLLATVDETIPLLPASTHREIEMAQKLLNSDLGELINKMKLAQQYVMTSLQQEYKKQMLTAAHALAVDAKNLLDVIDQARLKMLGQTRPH
Method: as §1, §2, §3

SRC = target: T5, SRC (Homo sapiens, UniProt P12931); assay: 33PanQinase Activity Assay, SRC; format: biochemical; conditions: recombinant human protein kinase, 1 μM [γ-33P]-ATP, 30° C. 80 minutes
T5 construct: made in house; host or cells: Sf9 insect cells (baculovirus)
T5 sequence (P12931 whole entry): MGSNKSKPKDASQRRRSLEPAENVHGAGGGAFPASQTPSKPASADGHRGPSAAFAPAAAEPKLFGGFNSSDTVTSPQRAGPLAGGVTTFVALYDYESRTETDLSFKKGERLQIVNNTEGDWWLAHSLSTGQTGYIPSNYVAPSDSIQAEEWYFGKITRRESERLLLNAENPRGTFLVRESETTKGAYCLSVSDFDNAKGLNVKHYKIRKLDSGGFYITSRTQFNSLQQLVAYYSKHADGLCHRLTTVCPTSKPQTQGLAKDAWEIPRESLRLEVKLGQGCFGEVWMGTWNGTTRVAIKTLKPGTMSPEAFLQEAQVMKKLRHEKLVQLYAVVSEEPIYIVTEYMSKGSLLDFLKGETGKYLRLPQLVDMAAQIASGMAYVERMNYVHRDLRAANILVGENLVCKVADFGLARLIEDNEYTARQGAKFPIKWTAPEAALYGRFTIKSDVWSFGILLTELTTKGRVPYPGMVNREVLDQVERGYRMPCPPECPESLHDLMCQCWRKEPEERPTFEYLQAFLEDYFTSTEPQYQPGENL
Method: as §1, §2, §3

VEGF-R2 = target: T6, VEGF-R2 (Homo sapiens, UniProt P35968); assay: 33PanQinase Activity Assay, VEGF-R2; format: biochemical; conditions: recombinant human protein kinase, 1 μM [γ-33P]-ATP, 30° C. 80 minutes
T6 construct: made in house; host or cells: Sf9 insect cells (baculovirus)
Method: as §1, §2, §3

PIM1 = target: T7, PIM1 (Homo sapiens, UniProt P11309); assay: 33PanQinase Activity Assay, PIM1; format: biochemical; conditions: recombinant human protein kinase, 1 μM [γ-33P]-ATP, 30° C. 80 minutes
T7 construct: made in house; host or cells: Sf9 insect cells (baculovirus)
T7 sequence (P11309 whole entry): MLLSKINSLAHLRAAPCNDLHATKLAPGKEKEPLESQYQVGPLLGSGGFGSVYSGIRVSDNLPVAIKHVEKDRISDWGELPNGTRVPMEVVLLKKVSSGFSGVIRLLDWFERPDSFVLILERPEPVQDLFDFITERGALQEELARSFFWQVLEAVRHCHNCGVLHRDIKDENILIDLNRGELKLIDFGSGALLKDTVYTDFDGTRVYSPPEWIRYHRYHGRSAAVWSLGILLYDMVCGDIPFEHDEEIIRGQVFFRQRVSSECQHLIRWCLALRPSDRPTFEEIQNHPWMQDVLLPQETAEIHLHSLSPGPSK
Method: as §1, §2, §3

IGF1-R = target: T8, IGF1-R (Homo sapiens, UniProt P08069); assay: 33PanQinase Activity Assay, IGF1-R; format: biochemical; conditions: recombinant human protein kinase, 1 μM [γ-33P]-ATP, 30° C. 80 minutes
T8 construct: made in house; host or cells: Sf9 insect cells (baculovirus)
Method: as §1, §2, §3

Row | SMILES | IC50 (AXL) | melting point | IC50 (ALK) | IC50 (KIT wt) | IC50 (FAK) | IC50 (SRC) | IC50 (VEGF-R2) | IC50 (PIM1) | IC50 (IGF1-R)
1 | Fc1ccc(-c2cc3ncnc(Sc4nnc(-c5ccncc5)o4)c3s2)cc1 [Compound 8b, 2-{[6-(4-Fluorophenyl)thieno[3,2-d]pyrimidin-4-yl]thio}-5-(pyridin-4-yl)-1,3,4-oxadiazole] | 2.64 µM | 232 °C | 2.94 µM | 1.74 µM | – | – | – | – | –
2 | O=C1CCCCCN1Cc1nnc(Sc2ncnc3cc(-c4ccc(Cl)cc4)sc23)o1 [Compound 9a] | 1.63 µM | – | 2.16 µM | 0.608 µM | 8.93 µM | – | – | – | –
3 | Fc1ccc(-c2cc3ncnc(Sc4nnc(CN5CCCC5)o4)c3s2)cc1 [Compound 9b] | 6.09 µM | – | 3.03 µM | 6.48 µM | 15 µM | – | – | – | –
4 | Fc1ccc(-c2cc3ncnc(Sc4nnc(-c5ccccc5)o4)c3s2)cc1 [Compound 8a, 2-{[6-(4-Fluorophenyl)thieno[3,2-d]pyrimidin-4-yl]thio}-5-phenyl-1,3,4-oxadiazole] | 3.16 µM | 223 °C | 0.987 µM | 1.04 µM | – | – | – | – | –
5 | COc1ccc(-c2cc3ncnc(Sc4nnc(-c5ccc(C(F)(F)F)cc5)o4)c3s2)cc1 [Compound 8o, 2-{[6-(4-Methoxyphenyl)thieno[3,2-d]pyrimidin-4-yl]thio}-5-[4-(trifluoro-methyl)phenyl]-1,3,4-oxadiazole] | 2.4 µM | 227 to 228 °C | 0.88 µM | – | 1.7 µM | 0.84 µM | – | – | –
6 | Cn1nnnc1Sc1ncnc2cc(-c3ccc(F)cc3)sc12 [Compound 9d] | 28.9 µM | – | 13.6 µM | 2.41 µM | 13.6 µM | – | – | – | –
7 | COc1ccc(-c2cc3ncnc(Sc4nnc(-c5ccc(Cl)cc5Cl)o4)c3s2)cc1 [Compound 8q, 2-(2,4-Dichlorophenyl)-5-{[6-(4-methoxyphenyl)thieno[3,2-d]pyrimidin-4-yl]thio}-1,3,4-oxadiazole] | 2.2 µM | 213 to 215 °C | 1.3 µM | – | 1.5 µM | 0.8 µM | – | – | –
8 | c1ccc(-c2nc3c(Sc4nnc(-c5ccncc5)o4)ncnc3[nH]2)cc1 [Compound 8s, 2-[(8-Phenyl-9H-purin-6-yl)thio]-5-(pyridin-4-yl)-1,3,4-oxadiazole] | 24 µM | 250 to 251 °C | 27 µM | – | 26 µM | 19 µM | – | – | –
9 | COCCNc1nnc(Sc2ncnc3cc(-c4ccc(OC)cc4)sc23)s1 [Compound 9f] | 5.2 µM | – | 3.51 µM | 0.804 µM | 16.7 µM | – | – | – | –
10 | COc1ccc(-c2cc3nc(N)nc(Sc4nnc(-c5ccc(Cl)cc5)o4)c3s2)cc1 [Compound 8r, 4-{[5-(4-Chlorophenyl)-1,3,4-oxadiazol-2-yl]thio}-6-(4-methoxyphenyl)thieno[3,2-d]pyrimidin-2-amine] | 1.2 µM | 206 to 208 °C | 0.73 µM | – | 0.9 µM | 0.65 µM | – | – | –
11 | c1ccc(Cc2nnc(Sc3ncnc4[nH]c(-c5ccccc5)nc34)o2)cc1 [Compound 8t, 2-Benzyl-5-[(8-phenyl-9H-purin-6-yl)thio]-1,3,4-oxadiazole] | > 100 µM | 198 to 199 °C | 76 µM | – | 43 µM | 32 µM | – | – | –
12 | Cc1nnc(Sc2ncnc3cc(-c4ccc(Cl)cc4)sc23)s1 [Compound 9i] | 41.7 µM | – | 15 µM | 1.25 µM | > 100 µM | – | – | – | –
13 | COc1ccc(-c2cc3ncnc(Sc4nnc(-c5ccccc5C)o4)c3s2)cc1 [Compound 8p, 2-{[6-(4-methoxyphenyl)thieno[3,2-d]pyrimidin-4-yl]thio}-5-(o-tolyl)-1,3,4-oxadiazole] | 1.9 µM | 184 to 186 °C | 0.92 µM | – | 1.3 µM | 0.68 µM | – | – | –
14 | COc1ccc(-c2cc3ncnc(Sc4nnc(-c5ccccc5)o4)c3s2)cc1 [Compound 8m, 2-{[6-(4-Methoxyphenyl)thieno[3,2-d]pyrimidin-4-yl]thio}-5-phenyl-1,3,4-oxadiazole] | 0.94 µM | 213 to 215 °C | 0.97 µM | – | 0.83 µM | 0.032 µM | – | – | –
15 | CC(C)(C)c1nnc(Sc2ncnc3cc(-c4ccc(F)cc4)sc23)o1 [Compound 8g, 2-(tert-Butyl)-5-{[6-(4-fluorophenyl)thieno[3,2-d]pyrimidin-4-yl]thio}-1,3,4-oxadiazole] | 6.19 µM | 197 to 199 °C | 2.37 µM | – | 4.82 µM | 2.51 µM | 4.07 µM | 22.9 µM | 3.28 µM
16 | COc1ccc(-c2cc3ncnc(Sc4nnnn4C)c3s2)cc1 [Compound 9g] | 5.8 µM | – | 2.37 µM | 1.02 µM | 5.99 µM | – | – | – | –
17 | COc1ccc(-c2cc3ncnc(Sc4nnnn4C4CC4)c3s2)cc1 [Compound 9e] | 9.76 µM | – | 2.76 µM | 1.3 µM | 7.89 µM | – | – | – | –
18 | c1ccc(-c2nc3c(Sc4nnc(-c5ccco5)o4)ncnc3[nH]2)cc1 [Compound 8u, 2-(Furan-2-yl)-5-[(8-phenyl-9H-purin-6-yl)thio]-1,3,4-oxadiazole] | 40 µM | 224 to 225 °C | 22 µM | – | 23 µM | 11 µM | – | – | –
19 | Fc1ccc(-c2cc3ncnc(Sc4nnc(CN5CCOCC5)o4)c3s2)cc1 [Compound 8d, 4-{[5-({6-[4-Fluorophenyl]thieno[3,2-d]pyrimidin-4-yl}thio)-1,3,4-oxadiazol-2-yl]methyl}morpholine] | 7.66 µM | – | 5.59 µM | 3.85 µM | – | – | – | – | –
20 | Fc1ccc(-c2cc3ncnc(Sc4nnc(-c5ccc6c(c5)OCO6)o4)c3s2)cc1 [Compound 9c] | 6.56 µM | – | 0.935 µM | 4.92 µM | 3.52 µM | – | – | – | –
21 | COc1ccc(-c2cc3ncnc(Sc4nnc(-c5ccc(Cl)cc5)o4)c3s2)cc1 [Compound 8n, 2-(4-Chlorophenyl)-5-{[6-(4-methoxyphenyl)thieno[3,2-d]pyrimidin-4-yl]thio}-1,3,4-oxadiazole] | 2.7 µM | 221 to 223 °C | 1 µM | – | 1.4 µM | 0.55 µM | – | – | –
22 | COc1ccc(-c2cc3ncnc(Sc4n[nH]/c(=N\C5CC5)s4)c3s2)cc1 [Compound 9h] | 10.1 µM | – | 2.72 µM | 0.873 µM | 10.5 µM | – | – | – | –
23 | O=S1(=O)CCC(Cc2nnc(Sc3ncnc4cc(-c5ccc(F)cc5)sc34)o2)C1 (stereo not shown) [Compound 8k, 3-{[5-({6-[4-Fluorophenyl]thieno[3,2-d]pyrimidin-4-yl}thio)-1,3,4-oxadiazol-2-yl]methyl}-tetrahydrothiophene-1,1-dioxide] | 4.58 µM | 180 to 182 °C | 2.95 µM | – | 5.76 µM | 2.62 µM | 2.05 µM | 26.3 µM | 7.65 µM
24 | CN(C)Cc1nnc(Sc2ncnc3cc(-c4ccc(F)cc4)sc23)o1 [Compound 8c, 1-{5-[(6-{4-Fluorophenyl}thieno[3,2-d]pyrimidin-4-yl)thio]-1,3,4-oxadiazol-2-yl}-N,N-dimethylmethanamine] | 12.3 µM | 170 to 172 °C | 6.54 µM | 2.76 µM | – | – | – | – | –
